From patent US20230096028A1, “BICYCLIC HETEROCYCLYL COMPOUNDS AND USES THEREOF” (Revolution Medicines, Inc., priority 2019, published 2023)

Tests used:
[1] = test system: PC-9 cells (EGFR Ex19Del); experiment: Potency Assay: pERK (SOS1 pERK IC50 Assay, AlphaLISA SureFire Ultra p-ERK1/2); format: cell-based; conditions: Homo sapiens; PC-9 cells (EGFR Ex19Del), 1 hour incubation, AlphaLISA p-ERK1/2; read-out: SOS1 pERK IC50
In short: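 Cellular pERK1/2 by AlphaLISA SureFire Ultra after 1 h compound exposure (37° C., highest concentration 10 μM, 3-fold steps, duplicates) of EGFR Ex19Del PC-9 cells seeded the day before. A 4-parameter fit of signal versus log concentration gives IC50.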

[2] = target: T1, SOS1 catalytic domain (residues 564-1049) (Homo sapiens, UniProt Q07889); experiment: Potency Assay: binding affinity to SOS1 using Surface Plasmon Resonance (SPR); parameters: SOS1 catalytic domain (residues 564-1049) immobilized on a sensor chip; conditions: immobilized SOS1 catalytic domain (residues 564-1049), read-out: SOS1 SPR Equilibrium Kd
T1 sequence (Q07889 564-1049): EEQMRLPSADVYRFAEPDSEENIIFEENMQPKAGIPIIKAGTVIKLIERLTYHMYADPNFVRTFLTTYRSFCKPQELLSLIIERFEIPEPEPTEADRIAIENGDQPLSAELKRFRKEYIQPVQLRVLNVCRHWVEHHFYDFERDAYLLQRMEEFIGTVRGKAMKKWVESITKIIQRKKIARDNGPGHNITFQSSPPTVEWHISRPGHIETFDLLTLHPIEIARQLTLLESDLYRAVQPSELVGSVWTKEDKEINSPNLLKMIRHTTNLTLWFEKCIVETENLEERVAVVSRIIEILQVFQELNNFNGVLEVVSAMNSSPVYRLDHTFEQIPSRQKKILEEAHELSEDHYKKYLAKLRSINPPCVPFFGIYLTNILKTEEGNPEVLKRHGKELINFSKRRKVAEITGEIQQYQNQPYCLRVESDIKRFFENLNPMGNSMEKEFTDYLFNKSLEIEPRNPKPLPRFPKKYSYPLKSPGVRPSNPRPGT
In short: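 Kd was obtained by plotting binding response, taken just before association ended, versus compound concentration on a Biacore 8K. Compounds flowed at 50 μL/min over streptavidin-captured avi-SOS1 catalytic domain (~6000 RU), followed by buffer dissociation; HEPES 0.01 M/NaCl 0.15 M/0.05% P20 buffer, double-referenced.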

[3] = target: T1, SOS1 catalytic domain (residues 564-1049); experiment: Mode of Action Assay: inhibition of SOS1 nucleotide exchange activity (SOS1 TR-FRET IC50 Assay)

Row | IC50 [1] [µM] | Kd [2] [µM] | IC50 [3] [µM] | Compound
1 | < 1 | < 0.4 | < 1 | C[C@@H](Nc1nc(Cl)nc2c1CN(C(=O)N1CCNC(C(F)(F)F)C1)C2)c1cccc(C(F)(F)F)c1 (stereo partly drawn) [Example 363]
2 | < 1 | < 0.4 | < 1 | C[C@@H](Nc1nc(Cl)nc2c1CN(C(=O)N1CCNCC1)C2)c1cccc(C(F)(F)F)c1 [Example 364]
3 | < 1 | < 0.4 | < 1 | C[C@@H](Nc1nc(Cl)nc2c1CN(C(=O)N1CCOc3ncccc31)C2)c1cc(N)cc(C(F)(F)F)c1 [Example 365]
4 | < 1 | < 0.4 | < 1 | C[C@@H](Nc1nc(Cl)nc2c1CN(C(=O)N1CCOc3ncccc31)C2)c1cccc(C(F)(F)F)c1 [Example 366]
5 | < 1 | < 0.4 | < 1 | C[C@@H](Nc1nc(Cl)nc2c1CN(C(=O)N1CCNc3ncccc31)C2)c1cccc(C(F)(F)F)c1 [Example 370]
6 | < 1 | < 0.4 | < 1 | C[C@@H](Nc1nc(Cl)nc2c1CN(C(=O)N1CCNC3(CC3)C1)C2)c1cccc(C(F)(F)F)c1 [Example 374]
7 | < 1 | < 0.4 | < 1 | C[C@@H](Nc1nc(Cl)nc2c1CN(C(=O)N1CCNc3ccncc31)C2)c1cccc(C(F)(F)F)c1 [Example 375]
8 | < 1 | < 0.4 | < 1 | C[C@@H](Nc1nc(Cl)nc2c1CN(C(=O)N1CCNC(=O)C1)C2)c1cccc(C(F)(F)F)c1 [Example 376]
9 | < 1 | < 0.4 | < 1 | C[C@@H](Nc1nc(Cl)nc2c1CN(C(=O)N1CCCNCC1)C2)c1cccc(C(F)(F)F)c1 [Example 377]
10 | > 1 | < 0.4 | < 1 | C[C@@H](Nc1nc(Cl)nc2c1CN(C(=O)N1C[C@H]3CNCC[C@H]3C1)C2)c1cccc(C(F)(F)F)c1 [Example 378]
11 | > 1 | < 0.4 | < 1 | C[C@@H](Nc1nc(Cl)nc2c1CN(C(=O)N1C[C@H]3CNC[C@H]3C1)C2)c1cccc(C(F)(F)F)c1 [Example 380]
12 | < 1 | < 0.4 | < 1 | CC(=O)N1CCN(C(=O)N2Cc3nc(Cl)nc(N[C@H](C)c4cccc(C(F)(F)F)c4)c3C2)CC1 [Example 381]
13 | > 1 | < 0.4 | < 1 | C[C@@H](Nc1nc(Cl)nc2c1CN(C(=O)N1CCCC13CCNC3)C2)c1cccc(C(F)F)c1F (stereo partly drawn) [Example 382]
14 | < 1 | < 0.4 | < 1 | C[C@@H](Nc1nc(Cl)nc2c1CN(C(=O)N1CCN(C3COC3)CC1)C2)c1cccc(C(F)F)c1F [Example 383]
15 | < 1 | < 0.4 | < 1 | C[C@@H](Nc1nc(Cl)nc2c1CN(C(=O)N1CC3CCC1CN3)C2)c1cccc(C(F)F)c1F (stereo partly drawn) [Example 384]
16 | < 1 | < 0.4 | < 1 | C[C@@H](Nc1nc(Cl)nc2c1CN(C(=O)N1CCNCC1c1cccnc1)C2)c1cccc(C(F)F)c1F (stereo partly drawn) [Example 386]
17 | < 1 | < 0.4 | < 1 | C[C@@H](Nc1nc(Cl)nc2c1CN(C(=O)N1CCNC(C(F)(F)F)C1)C2)c1cccc(C(F)F)c1F (stereo partly drawn) [Example 387]
18 | > 1 | < 0.4 | < 1 | C[C@@H](Nc1ncnc2c1CN(C(=O)N1CCOCC1)C2)c1cccc(C(F)F)c1F [Example 389]
19 | < 1 | < 0.4 | < 1 | C[C@@H](Nc1nc(Cl)nc2c1CN(C(=O)N1CCC3(CCN3)CC1)C2)c1cccc(C(F)F)c1F [Example 390]
20 | < 1 | < 0.4 | < 1 | CC1CNCCN1C(=O)N1Cc2nc(Cl)nc(N[C@H](C)c3cccc(C(F)F)c3F)c2C1 (stereo partly drawn) [Example 391]

Row | IC50 [1] [µM] | Kd [2] [µM] | IC50 [3] [µM] | Compound
21 | > 1 | < 0.4 | < 1 | C[C@@H](Nc1nc(Cl)nc2c1CN(C(=O)N1CCC13CNC3)C2)c1cccc(C(F)F)c1F [Example 392]
22 | > 1 | < 0.4 | < 1 | C[C@@H](Nc1nc(Cl)nc2c1CN(C(=O)N1CC3(CNC3)C1)C2)c1cccc(C(F)F)c1F [Example 393]
23 | < 1 | < 0.4 | < 1 | CC(=O)N1CCN(C(=O)N2Cc3nc(Cl)nc(N[C@H](C)c4cccc(C(F)F)c4F)c3C2)CC1 [Example 394]
24 | < 1 | < 0.4 | < 1 | C[C@@H](Nc1nc(Cl)nc2c1CN(C(=O)N1CCC(O)CC1)C2)c1cccc(C(F)F)c1F [Example 395]
25 | < 1 | < 0.4 | < 1 | C[C@@H]1CN(C(=O)N2Cc3nc(Cl)nc(N[C@H](C)c4cccc(C(F)F)c4F)c3C2)C[C@H](C)N1C [Example 397]
26 | > 1 | < 0.4 | < 1 | C[C@@H](Nc1nc(Cl)nc2c1CN(C(=O)N1CC3CNCC(C1)O3)C2)c1cccc(C(F)F)c1F [Example 398]
27 | > 1 | < 0.4 | < 1 | C[C@@H](Nc1nc(Cl)nc2c1CN(C(=O)N1C[C@@H]3C[C@H]1CN3)C2)c1cccc(C(F)F)c1F [Example 399]
28 | < 1 | < 0.4 | < 1 | C[C@@H](Nc1nc(Cl)nc2c1CN(C(=O)N1CCCNCC1)C2)c1cccc(C(F)F)c1F [Example 400]
29 | < 1 | < 0.4 | < 1 | C[C@@H](Nc1nc(Cl)nc2c1CN(C(=O)N1CCNC(c3ccncc3)C1)C2)c1cccc(C(F)F)c1F (stereo partly drawn) [Example 401]
30 | < 1 | < 0.4 | < 1 | C[C@@H](Nc1nc(Cl)nc2c1CN(C(=O)N1CCNCC(F)(F)C1)C2)c1cccc(C(F)F)c1F [Example 402]
31 | < 1 | < 0.4 | < 1 | C[C@@H](Nc1nc(Cl)nc2c1CN(C(=O)N1CCNC(=O)C1)C2)c1cccc(C(F)F)c1F [Example 403]
32 | < 1 | < 0.4 | < 1 | C[C@@H](Nc1nc(Cl)nc2c1CN(C(=O)N1CCNCC(F)C1)C2)c1cccc(C(F)F)c1F (stereo partly drawn) [Example 404]
33 | > 1 | < 0.4 | < 1 | C[C@@H](Nc1nc(Cl)nc2c1CN(C(=O)N1CCNCC13COC3)C2)c1cccc(C(F)F)c1F [Example 405]
34 | < 1 | < 0.4 | < 1 | C[C@@H](Nc1nc(Cl)nc2c1CN(C(=O)N1C[C@H]3C[C@@H]1CN3)C2)c1cccc(C(F)F)c1F [Example 406]
35 | < 1 | < 0.4 | < 1 | C[C@@H](Nc1nc(Cl)nc2c1CN(C(=O)N1CCNCC1)C2)c1cccc(C(F)F)c1F [Example 407]
36 | < 1 | < 0.4 | < 1 | C[C@@H](Nc1nc(Cl)nc2c1CN(C(=O)C1(F)CN(C)C1)C2)c1cccc(C(F)F)c1F [Example 408]
37 | < 1 | < 0.4 | < 1 | C[C@@H](Nc1nc(Cl)nc2c1CN(C(=O)N1C[C@H]3COC[C@H]3C1)C2)c1cccc(C(F)F)c1F [Example 410]
38 | < 1 | < 0.4 | < 1 | C[C@@H](Nc1nc(Cl)nc2c1CN(C(=O)N1CCOC(F)(F)C1)C2)c1cccc(C(F)F)c1F [Example 411]
39 | < 1 | < 0.4 | < 1 | C[C@@H](Nc1nc(Cl)nc2c1CN(C(=O)N1C[C@@H]3C[C@H]1CN3C)C2)c1cccc(C(F)F)c1F [Example 412]
40 | < 1 | < 0.4 | < 1 | C[C@@H](Nc1nc(Cl)nc2c1CN(C(=O)N1CCCC13CCN(C)C3)C2)c1cccc(C(F)F)c1F (stereo partly drawn) [Example 413]

Row | Compound | IC50 [1] [µM] | Kd [2] [µM] | IC50 [3] [µM]
41 | C[C@@H](Nc1nc(Cl)nc2c1CN(C(=O)N1CC3COCC(C1)N3)C2)c1cccc(C(F)F)c1F [Example 385] | < 1 | < 0.4 | < 1
42 | C[C@@H](Nc1nc(Cl)nc2c1CN(C(=O)N1CC3CCC(C1)N3)C2)c1cccc(C(F)F)c1F [Example 388] | < 1 | < 0.4 | < 1
43 | C[C@@H](Nc1nc(Cl)nc2c1CN(C(=O)N1C3CCC1COC3)C2)c1cccc(C(F)F)c1F [Example 396] | < 1 | < 0.4 | < 1
44 | C[C@@H](Nc1nc(Cl)nc2c1CN(C(=O)N1C3COCC1COC3)C2)c1cccc(C(F)F)c1F [Example 409] | < 1 | < 0.4 | < 1
